In US20040102454A1, “Phenylahistin and the phenylahistin analogs, a new class of anti-tumor compounds” (priority 1998, published 2004):
Values after ≈ are worked out from the molar mass of the structure shown. Where two headings read alike, the source gives them in different places.

How the values were obtained:
[1] = system: A-549 cells derived from human lung cancer; test: Cell proliferation inhibition, MTT (Example 2); format: cell-based; conditions: A549, read-out: IC50 (concentration that inhibited cell proliferation 50%), A-549, 48 hours
Description: Into each well of a 96-well microtiter plate, 100 μl of A-549 cells derived from human lung cancer prepared to 10^5 cells/ml in a culture medium obtained by adding 10% bovine fetus serum to EMEM culture medium (Nissui Seiyaku Co., Ltd.) having antitumor effect against A-549 cells derived from human lung cancer was placed. Methanol solution of racemic NSCL-96F037 obtained as in Example 1 was added to the wells of the uppermost row, specimens were diluted by the half-log dilution method and added, and the plate was incubated in a carbon dioxide gas incubator at 37° C. for 48 hours. The result was added in lots of 10 μl with MTT reagent (3-(4,5-dimethyl-2-thiazole)-2,5-diphenyl-2H-tetra bromide) (1 mg/ml•PBS), followed by incubation in a carbon dioxide gas incubator at 37° C. for 6 hours. The culture medium was discarded and the crystal of produced in the cells was dissolved in 100 μl/well of dimethylsulfoxide. Absorption of 595 nm light was then measured with a microplate reader.

Colon 26 cells = test: In vivo antitumor activity against Colon 26
Description: (§1) Male BDF1 mice (6 weeks old) were inoculated subcutaneously in the right flank region with Lewis Lung Carcinoma cells (1×10^5 cells/body) on day 0. PLH [(−)-PLH content; 41.7%] was suspended in 10% ethanol-saline, and was administered daily at a dose of 24 mg/kg, 72 mg/kg, or 240 mg/kg intraperitoneally, as a single injection (0.2 ml/body), from days 1 to 14. Each group consisted of six mice. Mice were weighed, and the length (L) and the width (W) of the tumor were measured three times a week. On day 15, mice were sacrificed, and the tumor was excised and weighed. The estimated tumor weight (ETW) was calculated according to the following formula:
(§2) ETW (mg)=L (mm)×W^2 (mm^2 )/2,
(§3) Suppression rate (%)=[1×(TWt/TWc)]×100,
(§4) Average and standard errors were calculated for each group. Variance analysis was performed by the Bartlett method (significance level: 5%), and if the variance was uniform, a Dunnett's multiple comparison test was performed. However, if the variance was not uniform, rank conversion was performed followed by variance analysis again by the Bartlett method (significance level: 5%). Significance was established at the p<0.05 level.
Male CDFI mice (6 weeks old) were inoculated subcutaneously in the right flank region with Colon 26 cells (1×10^5 cells/body) on day 0. Each group consisted of six mice. Preparation and administration of PLH, and the evaluation of antitumor activity was carried out as described for Lewis Lung Carcinoma, in EXAMPLE 14.

[2] = system: Lewis Lung Carcinoma cells; test: In vivo antitumor activity against Lewis Lung Carcinoma
Description: as §1, §2
where L represents the length of the tumor and W represents the width of the tumor. The suppression rate was calculated according to the following formula:
as §3, §4

P388 cells = test: P388 proliferation, Alamar Blue assay; format: cell-based, murine; conditions: for IC50: Mus musculus
[3] = system: Microtubule protein from bovine brain; test: Microtubule protein polymerization assay (turbidity); format: biochemical
[4] = calculated from (−)-PLH content 41.7%

C=CC(C)(C)c1[nH]cnc1/C=C1\NC(=O)[C@H](Cc2ccccc2)NC1=O (racemic) [PLH, phenylahistin]
IC50 [1]: 0.3 µg/mL (≈ 0.856 µM) | rate of suppression (excised tumor weight) (Colon 26 cells; 24 mg/kg/day): 4.0% | weight of the excised tumor on the fifteenth day (Colon 26 cells; 24 mg/kg/day): 1,113 mg | body weight (Colon 26 cells; 24 mg/kg/day and 72 mg/kg/day): No marked changes in the weight | increments of ETW (Colon 26 cells; 24 mg/kg/day and 72 mg/kg/day): slightly lower than those of the control group | rate of suppression (excised tumor weight) (Colon 26 cells; 72 mg/kg/day): 27.3% | weight of the excised tumor on the fifteenth day (Colon 26 cells; 72 mg/kg/day): 843 mg | body weight (Colon 26 cells; 240 mg/kg/day): lower than that of the control group from day 3 | mice died (Colon 26 cells; 240 mg/kg/day): one mouse died on day 12, two died on day 13 and one died on day 14 | rate of suppression (excised tumor weight) (Colon 26 cells; 240 mg/kg/day): 81.8% | weight of the excised tumor on the fifteenth day (Colon 26 cells; 240 mg/kg/day): 211 mg | ETW (Colon 26 cells; 240 mg/kg/day, day 7): 14 mg | suppression rate (ETW) (Colon 26 cells; 240 mg/kg/day, day 10): 64.4% | suppression rate (ETW) (Colon 26 cells; 240 mg/kg/day, day 13): 78.8% | ETW (Colon 26 cells; 240 mg/kg/day, day 15): 254 mg | suppression rate (ETW) (Colon 26 cells; 240 mg/kg/day, day 15): 85.4% | 95% confidence limit of ED50 (Colon 26 cells; PLH with (−)-PLH content 41.7%): 29.0˜397.7 mg/kg/day | ED50 (Colon 26 cells; PLH with (−)-PLH content 41.7%): 107.3 mg/kg/day | mice died (Colon 26 cells; mouse, in vivo): No mice died | rate of suppression (excised tumor weight) ([2]; 24 mg/kg/day): 9.9% | weight of the excised tumor on the fifteenth day ([2]; 24 mg/kg/day): 2,941 mg | estimated tumor weight (ETW) ([2]; 24 mg/kg/day, day 7): 86 mg | estimated tumor weight (ETW) ([2]; 24 mg/kg/day, day 15): 2,244 mg | rate of suppression (excised tumor weight) ([2]; 72 mg/kg/day): 27.1% | weight of the excised tumor on the fifteenth day ([2]; 72 mg/kg/day): 2,380 mg | estimated tumor weight (ETW) ([2]; 72 mg/kg/day, day 7): 34 mg | estimated tumor weight (ETW) ([2]; 72 mg/kg/day, day 15): 2,142 mg | mice died ([2]; 72 mg/kg/day, on day 11): 1 mouse | body weight ([2]; 240 mg/kg/day): markedly lower than control values after day 3, and significantly lower on day 6 | rate of suppression (excised tumor weight) ([2]; 240 mg/kg/day): 81.0% | weight of the excised tumor on the fifteenth day ([2]; 240 mg/kg/day): 619 mg | estimated tumor weight (ETW) ([2]; 240 mg/kg/day, day 7): 34 mg | suppression of the ETW ([2]; 240 mg/kg/day, day 10): 81.8% | suppression of the ETW ([2]; 240 mg/kg/day, day 13): 82.3% | estimated tumor weight (ETW) ([2]; 240 mg/kg/day, day 15): 617 mg | suppression of the ETW ([2]; 240 mg/kg/day, day 15): 73.2% | mice died ([2]; 240 mg/kg/day, on day 13): 1 mouse | body weight ([2]; 24 and 72 mg/kg/day): little change in body weight | 95% confidence limit of ED50 ([2]; PLH with (−)-PLH content 41.7%): 22.0˜504.1 mg/kg/day | ED50 ([2]; linear regression of suppression rate, PLH with (−)-PLH content 41.7%): 105.3 mg/kg/day | mice died ([2]; mouse, in vivo): None

C=CC(C)(C)c1[nH]cnc1/C=C1\NC(=O)[C@H](Cc2ccccc2)NC1=O [(−)-phenylahistin]
times more active than (+)-phenylahistin in anti-proliferative assays (P388 cells): 50 times | IC50 (P388 cells; P388, read-out: IC50 P388 proliferation): 210 nM | IC50 (P388 cells; P388, read-out: IC50 for P388 Proliferation): 210 nM | times less active than colchicine, anti-proliferative activity (P388 cells; P388): about 10 times | 95% confidence limit of ED50, as (−)-PLH (Colon 26 cells; [4]): 12.1˜165.8 mg/kg/day | ED50, calculated dose of (−)-PLH (Colon 26 cells; [4]): 44.7 mg/kg/day | 95% confidence limit of ED50, as (−)-PLH [2, 4]: 9.2˜210.2 mg/kg/day | ED50, calculated dose of (−)-PLH [2, 4]: 43.9 mg/kg/day | polymerization of microtubule protein ([3]; 80 μM): completely inhibited | turbidity increase at high concentration ([3]; concentrations up to 200 μM): did not increase the turbidity | IC50 ([3]; microtubule protein 1.5 mg/ml (Table 4), read-out: IC50 for Microtubule Protein Polymerization): 25000 nM
